From patent US20250295762A1, “COMPOSITE BIOACTIVE COMPOSITIONS AND APPLICATIONS THEREOF” (THE UNIVERSITY OF NORTH CAROLINA AT CHAPEL HILL, priority 2022, published 2025)
≈ marks a conversion by molar mass, not a printed value.

Tested on: 3T3 fibroblasts
Assay: Cell viability by MTT assay in fibroblasts
Format: cell-based
Details: 24 h; for IC50: Fibroblast, read-out: 50% Inhibitory Concentration (IC50)
From the text: All cell lines (RAW 264.7 murine macrophages, DC2.4 dendritic cells, and 3T3 fibroblasts; ATCC, Manassas, VA) were maintained according to ATCC guidelines. B3Z T cells were obtained from Dr. Nilabh Shastri (Johns Hopkins) and maintained and used as previously outlined. See, Broaders, K. E.; Cohen, J. A.; Beaudette, T. T.; Bachelder, E. M.; Frechet, J. M., Acetalated dextran is a chemically and biologically tunable material for particulate immunotherapy. Proc Natl Acad Sci USA 2009, 106 (14), 5497-502. Cell viability was determined with an MTT assay, as previously described. See, Chen, N.; Collier, M. A.; Gallovic, M. D.; Collins, G. C.; Sanchez, C. C.; Fernandes, E. Q.; Bachelder, E. M.; Ainslie, K. M., Degradation of acetalated dextran can be broadly tuned based on cyclic acetal coverage and molecular weight. Int J Pharm 2016, 512 (1), 147-157.

Structure (SMILES)	IC50	50% Inhibitory Concentration (IC50)
Cc1ncc[nH]1 [2-methylimidazole]	~1000 µg/mL (≈ 12.2 mM)	–
NCCC(=O)N[C@@H](Cc1cnc[nH]1)C(=O)O [L-carnosine]	> 1000 µg/mL	–
CC(=O)[O-].CC(=O)[O-].[Zn+2] [zinc acetate dihydrate]	–	16.0 ± 1.0 µg/mL
O.O.O.O.O.O.O=[N+]([O-])[O-].O=[N+]([O-])[O-].[Zn+2] [zinc nitrate hexahydrate]	–	25.8 ± 2.1 µg/mL
